Assay results from patent publication US9453242B2, “Method and culture medium for preparing mammalian ovum or embryo in which zona pellucida has been thinned or eliminated, and method for fertilization using mammalian ovum prepared by same method” (NATIONAL UNIVERISTY CORPORATION KUMAMOTO UNIVERSITY, priority 2010, dated 2016).
Where two headings read alike, the source gives them in different places.

Experiments:
[1] = tested on: mouse unfertilized ovum (cumulus-oocyte complexes)
Description: A sperm suspension is pre-incubated in 90 μl of a TYH culture medium at 37° C. for 30 minutes, and under a stereomicroscope, sperms showing motility are collected, avoiding nonmotile sperms, and used for fertilization. The pre-incubated sperm suspension (10 μl) is added to 90 μl of an HTF culture medium (±glutathione) into which cumulus-oocyte complexes (COCs) have been previously introduced (insemination), and these are co-incubated in an incubator for 5 to 6 hours (37° C., 5% CO2), thereby performing fertilization. Thereafter, the ovum is washed with drops of new HTF, and the ovum is observed. Those judged to parthenogenetic (only one pronucleus is recognized in ooplasm) are excluded, and on the following day (24 hours after insemination), only 2-cell stage embryos are selected, and fertilization rate is determined according to the following formula. In vitro fertilization rate (%)=(number of 2-cell stage embryo)/(number of 2-cell stage embryo+number of unfertilized ovum)×100
According to the ordinary method as described above, fresh sperms and frozen sperms of C57BL/6J mice and refrigerated sperms (refrigerated for 2 days) of ICR mice were used to prepare sperm suspensions, which were used for conducting in vitro fertilization. Further, according to the ordinary method as described above, mouse fresh unfertilized ovums were prepared and cumulus-oocyte complexes were obtained.
The HTF culture medium was prepared according to the composition table described above. To the prepared HTF culture medium was added reduced glutathione so that its concentration was 1 mM (0.307 mg/ml), to prepare a glutathione-containing culture medium. Specifically, the HTF culture medium was prepared according to the composition table, and the culture medium was enclosed in an amount of 5 ml for each operation into an ample (component A). Further, 30.7 mg of reduced glutathione (available from SIGMA) and 593.8 mg of NaCl were mixed, then, the mixture was dispensed in one-time use amount (glutathione 1.535 mg/mixture 31.225 mg) (component B). Until use, these reagents were refrigerated, and directly before use, the component A and the component B were mixed and used for insemination. As the control, only the component A (THF culture medium containing no glutathione added) was used.
Specifically, into 90 μl of a HTF culture medium (glutathione concentration: 1 mM) containing cumulus-oocyte complexes (COCs) in a dish were added sperm suspensions (collected motile sperms) of fresh sperms, frozen sperms and refrigerated sperms each in an amount of 10 μl, and fertilization was conducted and fertilization rate was determined according to the above-described theory. An HTF culture medium containing no glutathione was used as the control.
Fertilization rate was investigated using various reduced glutathione concentrations, in the same manner as in Example 1. As the sperm, frozen sperms of C57BL/6J mice were used, and processed according to FIG. 1.
Regarding the sperms, fresh sperms and frozen sperms pre-incubated with MBCD were used in performing fertilization. The concentration of glutathione in an HTF culture medium was 0.25 mM in the case of fresh sperms and 1 mM in the case of frozen sperms. The sperms were pre-incubated with a MBCD-containing TYH culture medium (no glutathione) before fertilization, in the same manner as in Example 3. The pre-incubation time was 1 hour in the case of fresh sperms and 30 minutes in the case of frozen sperms.
The sperms were pre-incubated with a MBCD-containing TYH culture medium (no glutathione) before fertilization, in the same manner as in Example 3. The pre-incubation time was 1 hour.

[2] = tested on: zona pellucida-eliminated ovum; conditions: frozen C57BL/6 sperms
[3] = tested on: zona pellucida of mouse fresh unfertilized ovums
Description: Mouse fresh unfertilized ovums in which cumulus cells had been removed prepared according to the above-described “1. Preparation of ovum” were prepared. The ovums were treated with an HTF culture medium containing glutathione at a concentration of 100 mM (30.7 mg/ml) at 20° C. for 90 seconds. The operation conducted is explained referring to FIG. 7. Onto the bottom of a petri dish, 10 μl of a glutathione-containing HTF culture medium was dropped, and 10 embryos were inserted into this. […] After confirmation of disappearance of zona pellucida, the embryos were immediately diluted with 1000 μl of an HTF culture medium containing no glutathione, for avoiding damage on the embryos. Thereafter, the zona pellucida-eliminated embryos were transferred into a 100 μl drop of HTF, and further, transferred into a 100 μl drop of HTF twice, thus continuing incubation.
Elimination of the zona pellucida of an unfertilized ovum was conducted in the same manner as in Example 4 excepting use of an HTF culture medium having a glutathione concentration of 50 mM (15.4 mg/ml).
Mouse fresh unfertilized ovums in which cumulus cells had been removed prepared according to the above-described “1. Preparation of oocyte” were prepared, then, 10 μl of an HTF culture medium containing glutathione at various concentrations (5, 10, 25, 50, 100, 200 and 300 mM) was dropped onto the bottom of a petri dish, and 20 ovums were inserted into this, and the time until elimination of zona pellucida was measured.

[4] = glutathione 100 mM (30.7 mg/ml), 20° C.

N[C@@H](CCC(=O)N[C@@H](CS)C(=O)NCC(=O)O)C(=O)O [glutathione, reduced glutathione]
fertilization rate (%) ([1]; 129T2/SvEmsJ, cryopreserved sperms pre-incubated with MBCD, glutathione 1 mM): 82.1%
fertilization rate (%) ([1]; 129T2/SvEmsJ, fresh sperms pre-incubated with MBCD, glutathione 0.25 mM): 84.9%
fertilization rate (%) ([1]; B6C3F1, cryopreserved sperms pre-incubated with MBCD, glutathione 1 mM): 87.6%
fertilization rate (%) ([1]; B6C3F1, fresh sperms pre-incubated with MBCD, glutathione 0.25 mM): 97.7%
fertilization rate (%) ([1]; BALB/c, cryopreserved sperms pre-incubated with MBCD, glutathione 1 mM): 68.3%
fertilization rate (%) ([1]; BALB/c, fresh sperms pre-incubated with MBCD, glutathione 0.25 mM): 74.7%
fertilization rate (%) ([1]; BDF1, cryopreserved sperms pre-incubated with MBCD, glutathione 1 mM): 98.3%
fertilization rate (%) ([1]; BDF1, fresh sperms pre-incubated with MBCD, glutathione 0.25 mM): 94.2%
fertilization rate (%) ([1]; C3H/He, cryopreserved sperms pre-incubated with MBCD, glutathione 1 mM): 98.0%
fertilization rate (%) ([1]; C3H/He, fresh sperms pre-incubated with MBCD, glutathione 0.25 mM): 97.5%
fertilization rate (%) ([1]; C57BL/6J, cryopreserved sperms pre-incubated with MBCD, glutathione 1 mM): 97.9%
fertilization rate (%) ([1]; C57BL/6J, fresh sperms pre-incubated with MBCD, glutathione 0.25 mM): 95.6%
fertilization rate (%) ([1]; C57BL/6N, cryopreserved sperms pre-incubated with MBCD, glutathione 1 mM): 90.9%
fertilization rate (%) ([1]; C57BL/6N, fresh sperms pre-incubated with MBCD, glutathione 0.25 mM): 90.9%
fertilization rate (%) ([1]; DBA/2N, cryopreserved sperms pre-incubated with MBCD, glutathione 1 mM): 95.8%
fertilization rate (%) ([1]; DBA/2N, fresh sperms pre-incubated with MBCD, glutathione 0.25 mM): 95.2%
fertilization rate (%) ([1]; ICR, cryopreserved sperms pre-incubated with MBCD, glutathione 1 mM): 94.9%
fertilization rate (%) ([1]; ICR, fresh sperms pre-incubated with MBCD, glutathione 0.25 mM): 93.8%
reduced glutathione concentration giving remarkable improvement in fertilization rate ([1]; fresh sperms): ≥ 0.075 mg/mL
fertilization rate (%) ([1]; fresh sperms of C57BL/6J mice, glutathione 1 mM in HTF): 82.5%
effect on fertilization rate ([1]; fresh sperms, various lineages, glutathione 0.25 mM): sufficient improvement in fertilization rate
glutathione concentration at which improvement in fertilization rate was confirmed ([1]; frozen C57BL/6J sperms): ≥ 0.5 mM
fertilization rate (%) ([1]; frozen sperms of C57BL/6J mice, glutathione 1 mM in HTF): 92.1%
effect on fertilization rate ([1]; frozen sperms, all mouse lineages, glutathione 1 mM): remarkable improvement in fertilization rate for frozen sperms
number of 2-cell stage embryo(%) ([1]; glutathione 0.25 mM, frozen C57BL/6J sperms): 67%
number of 2-cell stage embryo ([1]; glutathione 0.25 mM, frozen C57BL/6J sperms, 279 oocytes): 187
number of 2-cell stage embryo(%) ([1]; glutathione 0.50 mM, frozen C57BL/6J sperms): 79%
number of 2-cell stage embryo ([1]; glutathione 0.50 mM, frozen C57BL/6J sperms, 316 oocytes): 251
number of 2-cell stage embryo(%) ([1]; glutathione 0.75 mM, frozen C57BL/6J sperms): 82%
number of 2-cell stage embryo ([1]; glutathione 0.75 mM, frozen C57BL/6J sperms, 307 oocytes): 252
effect on fertilization rate ([1]; glutathione 1 mM, fresh, frozen and refrigerated sperms): significant improvement in fertilization rate
number of 2-cell stage embryo(%) ([1]; glutathione 1.00 mM, frozen C57BL/6J sperms): 92%
number of 2-cell stage embryo ([1]; glutathione 1.00 mM, frozen C57BL/6J sperms, 276 oocytes): 254
number of 2-cell stage embryo(%) ([1]; glutathione 1.25 mM, frozen C57BL/6J sperms): 93%
number of 2-cell stage embryo ([1]; glutathione 1.25 mM, frozen C57BL/6J sperms, 292 oocytes): 272
number of 2-cell stage embryo(%) ([1]; glutathione 1.50 mM, frozen C57BL/6J sperms): 89%
number of 2-cell stage embryo ([1]; glutathione 1.50 mM, frozen C57BL/6J sperms, 294 oocytes): 262
number of 2-cell stage embryo(%) ([1]; glutathione 2.00 mM, frozen C57BL/6J sperms): 92%
number of 2-cell stage embryo ([1]; glutathione 2.00 mM, frozen C57BL/6J sperms, 309 oocytes): 285
number of 2-cell stage embryo(%) ([1]; glutathione 5.00 mM, frozen C57BL/6J sperms): 86%
number of 2-cell stage embryo ([1]; glutathione 5.00 mM, frozen C57BL/6J sperms, 292 oocytes): 251
number of 2-cell stage embryo(%) ([1]; glutathione 10.00 mM, frozen C57BL/6J sperms): 81%
number of 2-cell stage embryo ([1]; glutathione 10.00 mM, frozen C57BL/6J sperms, 341 oocytes): 276
fertilization rate (%) ([1]; refrigerated sperms (2 days) of ICR mice, glutathione 1 mM in HTF): 63.9%
fertilization rate ([1]; refrigerated sperms of C57BL/6J mice pre-incubated with MBCD 1 hour, glutathione 0.5 mM): 85.4%
fertilization and development of zona pellucida-eliminated ovum ([2]; glutathione 100 mM pre-treatment): fertilization occurred and the development of an ovum (ovum division) was confirmed
embryos developed to the blastocyst stage ([2]; of 70 zona pellucida-eliminated embryos (glutathione 100 mM)): 66
glutathione concentration at which zona pellucida was eliminated [3]: ≥ 50 mM
condition of zona pellucida ([3]; glutathione 5 mM in HTF): thinning
condition of zona pellucida ([3]; glutathione 10 mM in HTF): thinning
condition of zona pellucida ([3]; glutathione 25 mM in HTF): thinning
condition of zona pellucida ([3]; glutathione 50 mM in HTF): elimination
time (second) necessary for lysis of zona pellucida ([3]; glutathione 50 mM in HTF): <1,500 second
zona pellucida-eliminated embryos produced ([3]; glutathione 50 mM, using 20 embryos, 2 experiments): 20
time after which zona pellucida began to become thin (swell) [3, 4]: 30 s
time after which zona pellucida disappeared completely [3, 4]: 90 s
condition of zona pellucida ([3]; glutathione 100 mM in HTF): elimination
time (second) necessary for lysis of zona pellucida ([3]; glutathione 100 mM in HTF): <60 s
zona pellucida-eliminated embryos produced ([3]; glutathione 100 mM, using 70 embryos, 10 experiments): 70
condition of zona pellucida ([3]; glutathione 200 mM in HTF): elimination
time (second) necessary for lysis of zona pellucida ([3]; glutathione 200 mM in HTF): <50 s
condition of zona pellucida ([3]; glutathione 300 mM in HTF): elimination
time (second) necessary for lysis of zona pellucida ([3]; glutathione 300 mM in HTF): <10 s
